The structures appear in SMILES notation. Like-named read-outs stand apart in the source and are kept apart here.

The values below come from patent US20250051277A1, “DELIVERY OF THERAPEUTIC ALKALOID COMPOUNDS” (Sensorium Therapeutics, Inc., priority 2021, published 2025).

The conditions of series [1]: 10 μM.
Procedure: (§1) 50 μL aliquots of positive controls and test compounds spiked into rat or human plasma (n=2) were added to a pre-warmed plate (37° C.) and shaken at 50 rpm. At each respective time point, the reaction was stopped by adding 500 μL of acetonitrile containing internal standards (100 nM aprozolam, 200 nM caffeine, 100 nM tolbutamide). All samples were vortexed for 10 minutes, followed by centrifugation at 3,220 g for 30 minutes to precipitate proteins. 100 μL of the supernatant is transferred to a new plate. The supernatant will be diluted with ultrapure water according to the LC-MS signal response and peak shape.
For series [2] the following is noted: 10 μM. The source holds these as a separate data set.
Procedure: as §1

With `CCCCCC(C)C(=O)OC1=C[C@@H]2N(C)CC[C@]2(c2ccc(OC)c(OC)c2)CC1` (stereo partly drawn) [Compound 400, (3aS,7aS)-3a-(3,4-dimethoxyphenyl)-1-methyl-2,3,3a,4,5,7a-hexahydro-1H-indol-6-yl2-methylheptanoate], the “Prodrug (%) remaining, Rat Plasma” value amounted to 100.0% in series [1] (0 h); 12.6% in series [1] (10 min); 0.6% in series [1] (0.5 h); 0.1% in series [1] (1 h); 0.1% in series [1] (2 h); 0.0% in series [1] (4 h). For the same compound, the “Prodrug (%) remaining, Human Plasma” value is 100.0% in series [2] (0 h); 34.7% in series [2] (10 min); 11.6% in series [2] (0.5 h); 5.2% in series [2] (1 h); 2.3% in series [2] (2 h); 1.9% in series [2] (4 h).

Consider `CCCCC(CC)C(=O)OC1=C[C@@H]2N(C)CC[C@]2(c2ccc(OC)c(OC)c2)CC1` (stereo partly drawn) [Compound 401, (3aS,7aS)-3a-(3,4-dimethoxyphenyl)-1-methyl-2,3,3a,4,5,7a-hexahydro-1H-indol-6-yl2-ethylhexanoate], for which the “Prodrug (%) remaining, Rat Plasma” value stood at 100.0% in series [1] (0 h); 84.5% in series [1] (10 min); 55.8% in series [1] (0.5 h); 33.8% in series [1] (1 h); 16.3% in series [1] (2 h); 3.3% in series [1] (4 h). In addition, the “Prodrug (%) remaining, Human Plasma” value is on record as 100.0% in series [2] (0 h); 95.9% in series [2] (10 min); above 99% in series [2] (0.5 h); 96.6% in series [2] (1 h); 94.4% in series [2] (2 h); 93.4% in series [2] (4 h).

With `CCCC(C)C(=O)OC1=C[C@@H]2N(C)CC[C@]2(c2ccc(OC)c(OC)c2)CC1` (stereo partly drawn) [Compound 402, (3aS,7aS)-3a-(3,4-dimethoxyphenyl)-1-methyl-2,3,3a,4,5,7a-hexahydro-1H-indol-6-yl2-methylpentanoate], the “Prodrug (%) remaining, Rat Plasma” value in series [1] (0 h) was found to be 100.0%; in series [1] (10 min), 3.5%; in series [1] (0.5 h) it was 0.1%; in series [1] (1 h), 0.0%; in series [1] (2 h), 0.0%; in series [1] (4 h), 0.0%. For the same compound, the “Prodrug (%) remaining, Human Plasma” value in series [2] (0 h) is listed as 100.0%; in series [2] (10 min), 11.3%; in series [2] (0.5 h), 2.9%; in series [2] (1 h), 2.1%; in series [2] (2 h) it was 1.6%; in series [2] (4 h), 1.1%.

On to `COCCCCC(=O)OC1=C[C@@H]2N(C)CC[C@]2(c2ccc(OC)c(OC)c2)CC1` [Compound 404, (3aS,7aS)-3a-(3,4-dimethoxyphenyl)-1-methyl-2,3,3a,4,5,7a-hexahydro-1H-indol-6-yl5-methoxypentanoate], for which the “Prodrug (%) remaining, Rat Plasma” value was 100.0% in series [1] (0 h); 0.3% in series [1] (10 min); 0.3% in series [1] (0.5 h); 0.3% in series [1] (1 h); 0.3% in series [1] (2 h); 0.2% in series [1] (4 h). The “Prodrug (%) remaining, Human Plasma” value was 100.0% in series [2] (0 h); 22.9% in series [2] (10 min); 11.5% in series [2] (0.5 h); 7.6% in series [2] (1 h); 3.8% in series [2] (2 h); 1.6% in series [2] (4 h).

Regarding `COCCOCCC(=O)OC1=C[C@@H]2N(C)CC[C@]2(c2ccc(OC)c(OC)c2)CC1` [Compound 405, (3aS,7aS)-3a-(3,4-dimethoxyphenyl)-1-methyl-2,3,3a,4,5,7a-hexahydro-1H-indol-6-yl3-(2-methoxyethoxy)propanoate], the “Prodrug (%) remaining, Rat Plasma” value is given as 100.0% in series [1] (0 h); 0.1% in series [1] (10 min); 0.0% in series [1] (0.5 h); 0.1% in series [1] (1 h); 0.0% in series [1] (2 h); 0.0% in series [1] (4 h). In addition, the “Prodrug (%) remaining, Human Plasma” value in series [2] (0 h) is reported as 100.0%; in series [2] (10 min), above 99%; in series [2] (0.5 h), 95.0%; in series [2] (1 h), 87.0%; in series [2] (2 h), 65.7%; in series [2] (4 h) it was 46.7%.

In the case of `CCC(C)C(=O)OC1=C[C@@H]2N(C)CC[C@]2(c2ccc(OC)c(OC)c2)CC1` (stereo partly drawn) [Compound 425, (3aS,7aS)-3a-(3,4-dimethoxyphenyl)-1-methyl-2,3,3a,4,5,7a-hexahydro-1H-indol-6-yl2-methylbutanoate], the “Prodrug (%) remaining, Rat Plasma” value in series [1] (0 h) was found to be 100.0%; in series [1] (10 min) it was 4.4%; in series [1] (0.5 h), 0.1%; in series [1] (1 h) it was 0.0%; in series [1] (2 h), 0.0%; in series [1] (4 h) it was 0.0%. Also, the “Prodrug (%) remaining, Human Plasma” value in series [2] (0 h) worked out at 100.0%; in series [2] (10 min), 6.5%; in series [2] (0.5 h) it was 4.8%; in series [2] (1 h), 4.0%; in series [2] (2 h) it was 3.0%; in series [2] (4 h), 1.9%.

As for `CCC(CC)C(=O)OC1=C[C@@H]2N(C)CC[C@]2(c2ccc(OC)c(OC)c2)CC1` [Compound 426, (3aS,7aS)-3a-(3,4-dimethoxyphenyl)-1-methyl-2,3,3a,4,5,7a-hexahydro-1H-indol-6-yl2-ethylbutanoate], the “Prodrug (%) remaining, Rat Plasma” value is recorded as 100.0% in series [1] (0 h); 70.2% in series [1] (10 min); 33.2% in series [1] (0.5 h); 9.5% in series [1] (1 h); 0.9% in series [1] (2 h); 0.1% in series [1] (4 h). Further, the “Prodrug (%) remaining, Human Plasma” value in series [2] (0 h) is given as 100.0%; in series [2] (10 min), 87.1%; in series [2] (0.5 h), 80.3%; in series [2] (1 h) it was 79.2%; in series [2] (2 h), 73.6%; in series [2] (4 h), 66.4%.

Turning to `CCCC(CCC)C(=O)OC1=C[C@@H]2N(C)CC[C@]2(c2ccc(OC)c(OC)c2)CC1` [Compound 427, (3aS,7aS)-3a-(3,4-dimethoxyphenyl)-1-methyl-2,3,3a,4,5,7a-hexahydro-1H-indol-6-yl2-propylpentanoate], the “Prodrug (%) remaining, Rat Plasma” value in series [1] (0 h) is 100.0%; in series [1] (10 min), 93.6%; in series [1] (0.5 h), 73.4%; in series [1] (1 h), 43.9%; in series [1] (2 h) it was 16.0%; in series [1] (4 h), 2.3%. Moreover, the “Prodrug (%) remaining, Human Plasma” value in series [2] (0 h) is on record as 100.0%; in series [2] (10 min), above 99%; in series [2] (0.5 h), 96.6%; in series [2] (1 h), 96.9%; in series [2] (2 h), 95.5%; in series [2] (4 h) it was 91.2%.

Consider `CCC(C)(C)C(=O)OC1=C[C@@H]2N(C)CC[C@]2(c2ccc(OC)c(OC)c2)CC1` [Compound 428, (3aS,7aS)-3a-(3,4-dimethoxyphenyl)-1-methyl-2,3,3a,4,5,7a-hexahydro-1H-indol-6-yl2,2-dimethylbutanoate], for which the “Prodrug (%) remaining, Rat Plasma” value in series [1] (0 h) was 100.0%; in series [1] (10 min) it was 90.3%; in series [1] (0.5 h) it was 69.9%; in series [1] (1 h), 41.7%; in series [1] (2 h) it was 18.1%; in series [1] (4 h), 3.9%. For the same compound, the “Prodrug (%) remaining, Human Plasma” value is reported as 100.0% in series [2] (0 h); 82.9% in series [2] (10 min); 74.5% in series [2] (0.5 h); 69.1% in series [2] (1 h); 56.8% in series [2] (2 h); 46.0% in series [2] (4 h).

As for `CCCC(C)(C)C(=O)OC1=C[C@@H]2N(C)CC[C@]2(c2ccc(OC)c(OC)c2)CC1` [Compound 429, (3aS,7aS)-3a-(3,4-dimethoxyphenyl)-1-methyl-2,3,3a,4,5,7a-hexahydro-1H-indol-6-yl2,2-dimethylpentanoate], the “Prodrug (%) remaining, Rat Plasma” value was found to be 100.0% in series [1] (0 h); 90.4% in series [1] (10 min); 83.9% in series [1] (0.5 h); 71.9% in series [1] (1 h); 50.8% in series [1] (2 h); 26.2% in series [1] (4 h). Also, the “Prodrug (%) remaining, Human Plasma” value in series [2] (0 h) is given as 100.0%; in series [2] (10 min) it was above 99%; in series [2] (0.5 h), 96.3%; in series [2] (1 h), 95.3%; in series [2] (2 h) it was 91.8%; in series [2] (4 h) it was 84.6%.

With `CCC(C)(CC)C(=O)OC1=C[C@@H]2N(C)CC[C@]2(c2ccc(OC)c(OC)c2)CC1` [Compound 430, (3aS,7aS)-3a-(3,4-dimethoxyphenyl)-1-methyl-2,3,3a,4,5,7a-hexahydro-1H-indol-6-yl2-ethyl-2-methylbutanoate], the “Prodrug (%) remaining, Rat Plasma” value in series [1] (0 h) is on record as 100.0%; in series [1] (10 min), 98.2%; in series [1] (0.5 h), 98.3%; in series [1] (1 h), 97.1%; in series [1] (2 h), 94.1%; in series [1] (4 h) it was 92.8%. Moreover, the “Prodrug (%) remaining, Human Plasma” value is recorded as 100.0% in series [2] (0 h); above 99% in series [2] (10 min); above 99% in series [2] (0.5 h); above 99% in series [2] (1 h); above 99% in series [2] (2 h); 95.9% in series [2] (4 h).
